Each compound was assayed against P2X7 (Homo sapiens (Human), UniProt Q99572) (assay: P2X7 antagonism in human peripheral blood mononuclear cells (PBMCs), IL-1β release). Conditions: P2X7; Table 3 (additional runs); 10 μM compound; read-out: PBMC 10 μM (% control).
Type: cell-based
Protocol: P2X7 Antagonism in Human Peripheral Blood Mononuclear Cells (PBMCs) and Human Whole Blood.
Human blood was collected using a blood donor program. PBMCs were isolated from blood using a Ficoll density gradient technique. Briefly, blood was laid on Ficoll solution and centrifuged at RT for 20 minutes at 2000 rpm. The buffy layer (between red blood cells and plasma) was carefully collected by aspiration, washed with PBS and centrifuged again at 1500 rpm for 15 minutes. The resulting cell pellet was washed and plated on 96 well-plates for experiments. For the Human Whole Blood experiments, 150 μl of human blood was platted on 96 well-plates. Lipopolysaccharide (LPS) (30 ng/ml) was added to each well and incubated for 1 hour. Test compounds were then added and incubated for 30 minutes. The P2X7 agonist, 2′(3′)-O-(4-benzoylbenzoyl) adenosine 5′-triphosphate (Bz-ATP) was then added at a final concentration of 0.5 mM (PBMC) or 1 mM (blood). Cells were incubated for an additional 1.5 hours. At that point, supernatant was collected and stored for IL-1β assay using manufacturer's protocol for enzyme-linked immunosorbent assay (ELISA). Data was expressed as percent control, where control is defined as the difference in IL-1β release in LPS+Bz-ATP samples and LPS only samples. Data was plotted as response (% control) versus concentration to generate IC50 values. […] Data are analyzed and graphed on Graphpad Prism 5. For analysis, each concentration point is averaged from triplicate values and the averaged values are plotted on Graphpad Prism.

Chain of P2X7 (Q99572 whole entry): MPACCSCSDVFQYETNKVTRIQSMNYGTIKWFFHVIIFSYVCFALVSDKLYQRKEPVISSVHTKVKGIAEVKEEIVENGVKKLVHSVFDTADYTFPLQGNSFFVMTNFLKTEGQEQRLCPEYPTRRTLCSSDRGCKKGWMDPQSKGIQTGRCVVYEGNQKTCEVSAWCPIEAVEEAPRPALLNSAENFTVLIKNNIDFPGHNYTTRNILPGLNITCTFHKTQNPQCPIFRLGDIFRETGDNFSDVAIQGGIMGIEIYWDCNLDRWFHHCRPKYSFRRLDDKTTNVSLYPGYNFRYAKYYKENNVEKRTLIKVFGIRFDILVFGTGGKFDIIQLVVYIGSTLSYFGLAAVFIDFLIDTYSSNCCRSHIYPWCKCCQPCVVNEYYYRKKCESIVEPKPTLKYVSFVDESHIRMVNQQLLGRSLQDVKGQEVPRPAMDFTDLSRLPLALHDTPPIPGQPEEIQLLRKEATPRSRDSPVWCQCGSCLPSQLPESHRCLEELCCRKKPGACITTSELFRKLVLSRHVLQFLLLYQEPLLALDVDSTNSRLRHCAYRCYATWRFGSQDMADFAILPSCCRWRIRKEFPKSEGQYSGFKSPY

SMILES | remaining activity at 10 µM
C[C@H]1Cn2c(nnc2-c2cnn(C)c2)C(=O)N1Cc1cccc(C(F)(F)F)c1Cl [Example 24, (6S)-7-[2-Chloro-3-(trifluoromethyl)benzyl]-6-methyl-3-(1-methyl-1H-pyrazol-4-yl)-6,7-dihydro[1,2,4]triazolo[4,3-a]pyrazin-8(5H)-one] | -0.7%
C[C@H]1Cn2c(nnc2-c2ncccn2)C(=O)N1Cc1cccc(C(F)(F)F)c1Cl [Example 27, (6S)-7-[2-Chloro-3-(trifluoromethyl)benzyl]-6-methyl-3-pyrimidin-2-yl-6,7-dihydro[1,2,4]triazolo[4,3-a]pyrazin-8(5H)-one] | -0.7%
C[C@H]1Cn2c(nnc2-c2cccnc2)C(=O)N1Cc1cccc(C(F)(F)F)c1Cl [Example 29, (6S)-7-[2-Chloro-3-(trifluoromethyl)benzyl]-6-methyl-3-pyridin-3-yl-6,7-dihydro[1,2,4]triazolo[4,3-a]pyrazin-8(5H)-one] | -3.4%
C[C@H]1Cn2c(nnc2-c2nccs2)C(=O)N1Cc1cccc(C(F)(F)F)c1Cl [Example 31, (6S)-7-[2-Chloro-3-(trifluoromethyl)benzyl]-6-methyl-3-(1,3-thiazol-2-yl)-6,7-dihydro[1,2,4]triazolo[4,3-a]pyrazin-8(5H)-one] | 3%
C[C@H]1Cn2c(nnc2-c2ncc(F)cn2)C(=O)N1Cc1cccc(C(F)(F)F)c1Cl [Example 34, (6S)-7-[2-Chloro-3-(trifluoromethyl)benzyl]-3-(5-fluoropyrimidin-2-v1)-6-methyl-6,7-dihydro[1,2,4]triazolo[4,3-a]pyrazin-8(5H)-one] | 0.8%
C[C@H]1Cn2c(nnc2-c2cncs2)C(=O)N1Cc1cccc(C(F)(F)F)c1Cl [Example 37, (6S)-7-[2-Chloro-3-(trifluoromethyl)benzyl]-6-methyl-3-(1,3-thiazol-5-yl)-6,7-dihydro[1,2,4]triazolo[4,3-a]pyrazin-8(5H)-one] | 9%
C[C@H]1Cn2c(nnc2-c2csc(C(F)(F)F)n2)C(=O)N1Cc1cccc(C(F)(F)F)c1Cl [Example 38, (6S)-7-[2-Chloro-3-(trifluoromethyl)benzyl]-6-methyl-3-[2-(trifluoromethyl)-1,3-thiazol-4-yl]-6,7-dihydro[1,2,4]triazolo[4,3-a]pyrazin-8(5H)-one] | 19.8%
C[C@H]1Cn2c(nnc2-c2ncc(Br)cn2)C(=O)N1Cc1cccc(C(F)(F)F)c1Cl [Example 42, (6S)-3-(5-Bromopyrimidin-2-yl)-7-[2-chloro-3-(trifluoromethyl)benzyl]-6-methyl-6,7-dihydro[1,2,4]triazolo[4,3-a]pyrazin-8(5H)-one] | 37.4%
C[C@H]1Cn2c(nnc2-c2cncc(F)c2)C(=O)N1Cc1cccc(C(F)(F)F)c1Cl [Example 45, (6S)-7-[2-Chloro-3-(trifluoromethyl)benzyl]-3-(5-fluoropyridin-3-yl)-6-methyl-6,7-dihydro[1,2,4]triazolo[4,3-a]pyrazin-8(5H)-one] | 20.1%
C[C@H]1Cn2c(nnc2-c2ccncc2)C(=O)N1Cc1cccc(C(F)(F)F)c1Cl [Example 47, (6S)-7-[2-Chloro-3-(trifluoromethyl)benzyl]-6-methyl-3-pyridin-4-yl-6,7-dihydro[1,2,4]triazolo[4,3-a]pyrazin-8(5H)-one] | -1.3%
C[C@H]1Cn2c(nnc2C2CCC2)C(=O)N1Cc1cccc(C(F)(F)F)c1Cl [Example 49, (6S)-7-[2-Chloro-3-(trifluoromethyl)benzyl]-3-cyclobutyl-6-methyl-6,7-dihydro[1,2,4]triazolo[4,3-a]pyrazin-8(5H)-one] | -3.1%
C[C@H]1Cn2c(nnc2C2CC2)C(=O)N1Cc1cccc(C(F)(F)F)c1Cl [Example 50, (6S)-7-[2-Chloro-3-(trifluoromethyl)benzyl]-3-cyclopropyl-6-methyl-6,7-dihydro[1,2,4]triazolo[4,3-a]pyrazin-8(5H)-one] | 8.7%
C[C@H]1Cn2c(nnc2C2CCCCC2)C(=O)N1Cc1cccc(C(F)(F)F)c1Cl [Example 51, (6S)-7-[2-Chloro-3-(trifluoromethyl)benzyl]-3-cyclohexyl-6-methyl-6,7-dihydro[1,2,4]triazolo[4,3-a]pyrazin-8(5H)-one] | 22.4%
C[C@H]1Cn2c(nnc2-c2cncc(Cl)c2)C(=O)N1Cc1cccc(C(F)(F)F)c1Cl [Example 52, (6S)-3-(5-Chloropyridin-3-yl)-7-[2-chloro-3-(trifluoromethyl)benzyl]-6-methyl-6,7-dihydro[1,2,4]triazolo[4,3-a]pyrazin-8(5H)-one] | 13.8%

Further lines, results first:

remaining activity at 10 µM | SMILES
2.8% | C[C@H]1Cn2c(nnc2-c2cn[nH]c2)C(=O)N1Cc1cccc(C(F)(F)F)c1Cl [Example 25, (6S)-7-[2-Chloro-3-(trifluoromethyl)benzyl]-6-methyl-3-(1H-pyrazol-4-yl)-6,7-dihydro[1,2,4]triazolo[4,3-a]pyrazin-8(5H)-one]
-3.7% | Cc1cc(-c2nnc3n2C[C@H](C)N(Cc2cccc(C(F)(F)F)c2Cl)C3=O)n[nH]1 [Example 26, (6S)-7-[2-Chloro-3-(trifluoromethyl)benzyl]-6-methyl-3-(5-methyl-1H-pyrazol-3-yl)-6,7-dihydro[1,2,4]triazolo[4,3-a]pyrazin-8(5H)-one]
-11.7% | C[C@H]1Cn2c(nnc2-c2cc[nH]n2)C(=O)N1Cc1cccc(C(F)(F)F)c1Cl [Example 28, (6S)-7-[2-Chloro-3-(trifluoromethyl)benzyl]-6-methyl-3-(1H-pyrazol-3-yl)-6,7-dihydro[1,2,4]triazolo[4,3-a]pyrazin-8(5H)-one]
3.4% | C[C@H]1Cn2c(nnc2-c2ccc(F)cn2)C(=O)N1Cc1cccc(C(F)(F)F)c1Cl [Example 30, (6S)-7-[2-Chloro-3-(trifluoromethyl)benzyl]-3-(5-fluoropyridin-2-yl)-6-methyl-6,7-dihydro[1,2,4]triazolo[4,3-a]pyrazin-8(5H)-one]
3.8% | C[C@H]1Cn2c(nnc2-c2cscn2)C(=O)N1Cc1cccc(C(F)(F)F)c1Cl [Example 32, (6S)-7-[2-Chloro-3-(trifluoromethyl)benzyl]-6-methyl-3-(1,3-thiazol-4-yl)-6,7-dihydro[1,2,4]triazolo[4,3-a]pyrazin-8(5H)-one]
0.9% | C[C@H]1Cn2c(nnc2-c2ccncn2)C(=O)N1Cc1cccc(C(F)(F)F)c1Cl [Example 33, (6S)-7-[2-Chloro-3-(trifluoromethyl)benzyl]-6-methyl-3-pyrimidin-4-yl-6,7-dihydro[1,2,4]triazolo[4,3-a]pyrazin-8(5H)-one]
-3.1% | COc1ccnc(-c2nnc3n2C[C@H](C)N(Cc2cccc(C(F)(F)F)c2Cl)C3=O)c1 [Example 35, (6S)-7-[2-Chloro-3-(trifluoromethyl)benzyl]-3-(4-methoxypyridin-2-yl)-6-methyl-6,7-dihydro[1,2,4]triazolo[4,3-a]pyrazin-8(5H)-one]
2.8% | Cc1nc(-c2nnc3n2C[C@H](C)N(Cc2cccc(C(F)(F)F)c2Cl)C3=O)cs1 [Example 36, (6S)-7-[2-Chloro-3-(trifluoromethyl)benzyl]-6-methyl-3-(2-methyl-1,3-thiazol-4-yl)-6,7-dihydro[1,2,4]triazolo[4,3-a]pyrazin-8(5H)-one]
20.3% | Cc1nc(C)c(-c2nnc3n2C[C@H](C)N(Cc2cccc(C(F)(F)F)c2Cl)C3=O)s1 [Example 39, (6S)-7-[2-Chloro-3-(trifluoromethyl)benzyl]-3-(2,4-dimethyl-1,3-thiazol-5-yl)-6-methyl-6,7-dihydro[1,2,4]triazolo[4,3-a]pyrazin-8(5H)-one]
22.3% | Cc1ncsc1-c1nnc2n1C[C@H](C)N(Cc1cccc(C(F)(F)F)c1Cl)C2=O [Example 40, (6S)-7-[2-Chloro-3-(trifluoromethyl)benzyl]-6-methyl-3-(4-methyl-1,3-thiazol-5-yl)-6,7-dihydro[1,2,4]triazolo[4,3-a]pyrazin-8(5H)-one]
35% | C[C@H]1Cn2c(nnc2-c2ccon2)C(=O)N1Cc1cccc(C(F)(F)F)c1Cl [Example 41, (6S)-7-[2-Chloro-3-(trifluoromethyl)benzyl]-3-isoxazol-3-yl-6-methyl-6,7-dihydro[1,2,4]triazolo[4,3-a]pyrazin-8(5H)-one]
26% | C[C@H]1Cn2c(nnc2-c2cccnn2)C(=O)N1Cc1cccc(C(F)(F)F)c1Cl [Example 44, (6S)-7-[2-Chloro-3-(trifluoromethyl)benzyl]-6-methyl-3-pyridazin-3-yl-6,7-dihydro[1,2,4]triazolo[4,3-a]pyrazin-8(5H)-one]
2.7% | Cc1cccc(-c2nnc3n2C[C@H](C)N(Cc2cccc(C(F)(F)F)c2Cl)C3=O)n1 [Example 46, (6S)-7-[2-Chloro-3-(trifluoromethyl)benzyl]-6-methyl-3-(6-methylpyridin-2-yl)-6,7-dihydro[1,2,4]triazolo[4,3-a]pyrazin-8(5H)-one]
0% | Cc1ncccc1-c1nnc2n1C[C@H](C)N(Cc1cccc(C(F)(F)F)c1Cl)C2=O [Example 48, (6S)-7-[2-Chloro-3-(trifluoromethyl)benzyl]-6-methyl-3-(2-methylpyridin-3-yl)-6,7-dihydro[1,2,4]triazolo[4,3-a]pyrazin-8(5H)-one]
